The record followed here is PMC10051910 (Marine Drugs, 2023).

The experiment has as its system COMI cells. The class given is cell-based, Human.

Each structure is given as a SMILES string.

With `CC[C@@]1(O)C(=O)OCc2c1cc1n(c2=O)Cc2cc3ccccc3nc2-1` [camptothecin], the p53 level entry is “massively upregulate p53”.
